Test results reported in US9447100B2, “Substituted pyrazolo[1,5-A] pyrimidines as calcium receptor modulating agents” (Takeda Pharmaceutical Company Limited, priority 2002, dated 2016).

Compound | melting point [°C]
CCC(CC)(NC(=O)c1cnn2c1NC(c1ccccc1)CC2(C)C)c1cccc(Br)c1 (centres unmarked) [Example 613, N-(1-(3-bromophenyl)-1-ethylpropyl)-7,7-dimethyl-5-phenyl-4,5,6,7-tetrahydropyrazolo[1,5-a]pyrimidine-3-carboxamide] | 195 to 196
CCC(CC)(NC(=O)c1cnn2c1NC(c1ccccc1)CC2(C)C)c1cccc(Cl)c1 (centres unmarked) [Example 614, N-(1-(3-chlorophenyl)-1-ethylpropyl)-7,7-dimethyl-5-phenyl-4,5,6,7-tetrahydropyrazolo[1,5-a]pyrimidine-3-carboxamide] | 195 to 196
CCC(CC)(NC(=O)c1cnn2c1NC(c1ccccc1)CC2(C)C)c1cccc(F)c1 (centres unmarked) [Example 615, N-(1-ethyl-1-(3-fluorophenyl)propyl)-7,7-dimethyl-5-phenyl-4,5,6,7-tetrahydropyrazolo[1,5-a]pyrimidine-3-carboxamide] | 180 to 181
CCC(CC)(CC)NC(=O)c1cnn2c1NC(c1ccccc1)CC2(C)C (centres unmarked) [Example 616, N-(1,1-diethylpropyl)-7,7-dimethyl-5-phenyl-4,5,6,7-tetrahydropyrazolo[1,5-a]pyrimidine-3-carboxamide] | 93 to 94
CCC1(NC(=O)c2cnn3c2NC(c2ccccc2)CC3(C)C)CCS(=O)(=O)CC1 (centres unmarked) [Example 617, N-(4-ethyl-1,1-dioxidotetrahydro-2H-thiopyran-4-yl)-7,7-dimethyl-5-phenyl-4,5,6,7-tetrahydropyrazolo[1,5-a]pyrimidine-3-carboxamide] | 155 to 156
CCC(C)(CC)NC(=O)c1cnn2c1NC(c1ccccc1)CC2(C)C (centres unmarked) [Example 618, N-(1-ethyl-1-methylpropyl)-7,7-dimethyl-5-phenyl-4,5,6,7-tetrahydropyrazolo[1,5-a]pyrimidine-3-carboxamide] | 88 to 89
CCCC1(NC(=O)c2cnn3c2NC(c2ccccc2)CC3(C)C)CCCCC1 (centres unmarked) [Example 619, 7,7-dimethyl-5-phenyl-N-(1-propylcyclohexyl)-4,5,6,7-tetrahydropyrazolo[1,5-a]pyrimidine-3-carboxamide] | 152 to 153
CCC(CC)(NC(=O)c1cnn2c1NC(c1ccccc1)CC2(C)C)C(C)C (centres unmarked) [Example 620, N-(1,1-diethyl-2-methylpropyl)-7,7-dimethyl-5-phenyl-4,5,6,7-tetrahydropyrazolo[1,5-a]pyrimidine-3-carboxamide] | 155 to 156
CC(C)C(NC(=O)c1cnn2c1NC(c1ccccc1)CC2(C)C)C(C)C (centres unmarked) [Example 621, N-(1-isopropyl-2-methylpropyl)-7,7-dimethyl-5-phenyl-4,5,6,7-tetrahydropyrazolo[1,5-a]pyrimidine-3-carboxamide] | 168 to 169
CCC1(NC(=O)c2cnn3c2NC(c2ccccc2)CC3(C)C)CCCCCC1 (centres unmarked) [Example 622, N-(1-ethylcycloheptyl)-7,7-dimethyl-5-phenyl-4,5,6,7-tetrahydropyrazolo[1,5-a]pyrimidine-3-carboxamide] | 129 to 130
CCC1(NC(=O)c2cnn3c2NC(c2ccccc2)CC3(C)C)CC[S+]([O-])CC1 (centres unmarked) [Example 623, N-(4-ethyl-1-oxidotetrahydro-2H-thiopyran-4-yl)-7,7-dimethyl-5-phenyl-4,5,6,7-tetrahydropyrazolo[1,5-a]pyrimidine-3-carboxamide] | 172 to 173
COC(=O)C1(NC(=O)c2cnn3c2NC(c2ccccc2)CC3(C)C)CCCCC1 (centres unmarked) [Example 624, methyl 1-(((7,7-dimethyl-5-phenyl-4,5,6,7-tetrahydropyrazolo[1,5-a]pyrimidin-3-yl)carbonyl)amino)cyclo-hexanecarboxylate] | 184 to 185
CC1(C)CC(c2ccccc2)Nc2c(C(=O)NC3(C(=O)O)CCCCC3)cnn21 (centres unmarked) [Example 625, 1-(((7,7-dimethyl-5-phenyl-4,5,6,7-tetrahydropyrazolo[1,5-a]pyrimidin-3-yl)carbonyl)amino)cyclo-hexanecarboxylic acid] | 215 to 216
CC1(C)CC(c2ccccc2)Nc2c(C(=O)NC3(C(N)=O)CCCCC3)cnn21 (centres unmarked) [Example 626, N-(1-(aminocarbonyl)cyclohexyl)-7,7-dimethyl-5-phenyl-4,5,6,7-tetrahydropyrazolo[1,5-a]pyrimidine-3-carboxamide] | 140 to 141
CC1(C)CC(c2ccccc2)Nc2c(C(=O)NC3(C#N)CCCCC3)cnn21 (centres unmarked) [Example 627, N-(1-cyanocyclohexyl)-7,7-dimethyl-5-phenyl-4,5,6,7-tetrahydropyrazolo[1,5-a]pyrimidine-3-carboxamide] | > 300
CCC(CC)(NC(=O)c1cnn2c1NC(c1ccccc1O)CC2(C)C)c1ccc(C(F)(F)F)cc1 (centres unmarked) [Example 629, N-(1-ethyl-1-(4-(trifluoro-methyl)phenyl)propyl)-5-(2-hydroxyphenyl)-7,7-dimethyl-4,5,6,7-tetrahydropyrazolo[1,5-a]pyrimidine-3-carboxamide] | 122 to 124

Compound | melting point [°C]
CC1(C)CC(c2ccccc2)Nc2c(C(=O)NC3(CO)CCCCC3)cnn21 (centres unmarked) [Example 644, N-(1-(hydroxymethyl)cyclo-hexyl)-7,7-dimethyl-5-phenyl-4,5,6,7-tetrahydropyrazolo[1,5-a]pyrimidine-3-carboxamide] | 175 to 176
C=Cc1ccc(C(CC)(CC)NC(=O)c2cnn3c2NC(c2ccccc2)CC3(C)C)cc1 (centres unmarked) [Example 645, N-(1-ethyl-1-(4-vinylphenyl)propyl)-7,7-dimethyl-5-phenyl-4,5,6,7-tetrahydropyrazolo[1,5-a]pyrimidine-3-carboxamide] | 155 to 156
CCCC(CC)(CC)NC(=O)c1cnn2c1NC(c1ccccc1)CC2(C)C (centres unmarked) [Example 646, N-(1,1-diethylbutyl)-7,7-dimethyl-5-phenyl-4,5,6,7-tetrahydropyrazolo[1,5-a]pyrimidine-3-carboxamide] | 76 to 77
CCc1ccc(C(CC)(CC)NC(=O)c2cnn3c2NC(c2ccccc2)CC3(C)C)cc1 (centres unmarked) [Example 647, N-(1-ethyl-1-(4-ethylphenyl)propyl)-7,7-dimethyl-5-phenyl-4,5,6,7-tetrahydropyrazolo[1,5-a]pyrimidine-3-carboxamide] | 156 to 157
CCC(CC)(CCOC)NC(=O)c1cnn2c1NC(c1ccccc1)CC2(C)C (centres unmarked) [Example 664, N-(1,1-diethyl-3-methoxypropyl)-7,7-dimethyl-5-phenyl-4,5,6,7-tetrahydropyrazolo[1,5-a]pyrimidine-3-carboxamide] | 129 to 130
CCC(CC)(CCSC)NC(=O)c1cnn2c1NC(c1ccccc1)CC2(C)C (centres unmarked) [Example 665, N-(1,1-diethyl-3-(methylthio)propyl)-7,7-dimethyl-5-phenyl-4,5,6,7-tetrahydropyrazolo[1,5-a]pyrimidine-3-carboxamide] | 154 to 155
CCC(CC)(NC(=O)c1cnn2c1NC(c1ccccc1)CC2(C)C)c1ccc(Cl)c(Cl)c1 (centres unmarked) [Example 666, N-(1-(3,4-dichlorophenyl)-1-ethylpropyl)-7,7-dimethyl-5-phenyl-4,5,6,7-tetrahydropyrazolo[1,5-a]pyrimidine-3-carboxamide] | 156 to 157
CCC(CC)(NC(=O)c1cnn2c1NC(c1ccccc1)CC2(C)C)c1ccc(I)cc1 (centres unmarked) [Example 667, N-(1-ethyl-1-(4-iodophenyl)propyl)-7,7-dimethyl-5-phenyl-4,5,6,7-tetrahydropyrazolo[1,5-a]pyrimidine-3-carboxamide] | 182 to 183
CCC(CC)(NC(=O)c1cnn2c1NC(c1ccccc1F)CC2(C)C)c1ccc(C(F)(F)F)cc1 (centres unmarked) [Example 675, N-(1-ethyl-1-(4-(trifluoromethyl)phenyl)propyl)-5-(2-fluorophenyl)-7,7-dimethyl-4,5,6,7-tetrahydropyrazolo[1,5-a]pyrimidine-3-carboxamide] | 200.9 to 201
CCC(CC)(NC(=O)c1cnn2c1NC(C1CCCCC1)CC2(C)C)c1ccc(C(F)(F)F)cc1 (centres unmarked) [Example 676, 5-cyclohexyl-N-(1-ethyl-1-(4-(trifluoromethyl)phenyl)propyl)-7,7-dimethyl-4,5,6,7-tetrahydropyrazolo[1,5-a]pyrimidine-3-carboxamide] | 178.7 to 178.9
CCC(CC)(NC(=O)c1cnn2c1NC(c1ccccc1)CC2(C)C)c1ccc(-c2ccc(OC)nc2)cc1 (centres unmarked) [Example 677, N-(1-ethyl-1-(4-(6-methoxy-3-pyridinyl)phenyl)propyl)-7,7-dimethyl-5-phenyl-4,5,6,7-tetrahydropyrazolo[1,5-a]pyrimidine-3-carboxamide] | 172 to 173
CCC(CC)(NC(=O)c1cnn2c1NC(c1ccccc1)CC2(C)C)c1ccc(C(=O)OC)cc1 (centres unmarked) [Example 678, methyl 4-(1-(((7,7-dimethyl-5-phenyl-4,5,6,7-tetrahydropyrazolo[1,5-a]pyrimidin-3-yl)carbonyl)amino)-1-ethylpropyl)benzoate] | 180 to 181
CCC(CC)(NC(=O)c1cnn2c1NC(c1ccccc1)CC2(C)C)c1ccc(Cl)cc1Cl (centres unmarked) [Example 680, N-(1-(2,4-dichlorophenyl)-1-ethylpropyl)-7,7-dimethyl-5-phenyl-4,5,6,7-tetrahydropyrazolo[1,5-a]pyrimidine-3-carboxamide] | 220 to 222
CCC(CC)(NC(=O)c1cnn2c1NC(c1ccco1)CC2(C)C)c1ccc(C(F)(F)F)cc1 (centres unmarked) [Example 693, N-(1-ethyl-1-(4-(trifluoro-methyl)phenyl)propyl)-5-(2-furyl)-7,7-dimethyl-4,5,6,7-tetrahydropyrazolo[1,5-a]pyrimidine-3-carboxamide] | 212 to 214
CCC(CC)(NC(=O)c1cnn2c1NC(c1ccc(F)cc1F)CC2(C)C)c1ccc(C(F)(F)F)cc1 (centres unmarked) [Example 694, 5-(2,4-difluorophenyl)-N-(1-ethyl-1-(4-(trifluoro-methyl)phenyl)propyl)-7,7-dimethyl-4,5,6,7-tetrahydropyrazolo[1,5-a]pyrimidine-3-carboxamide] | 198 to 199
CCC(CC)(NC(=O)c1c(C)nn2c1NC(c1ccccc1)CC2(C)C)c1ccc(Cl)cc1 (centres unmarked) [Example 696, N-(1-(4-chlorophenyl)-1-ethylpropyl)-2,7,7-trimethyl-5-phenyl-4,5,6,7-tetrahydropyrazolo[1,5-a]pyrimidine-3-carboxamide] | 146 to 148
